Experimental data published in ChEMBL document CHEMBL3885861, “Open TG-GATES”.

Species on record: Rattus norvegicus
Assay: Open TG-GATES - Regimen: Single
Assay type: toxicity, organism-based, Sprague-Dawley
Set-up: regimen Single, gender Male, age 6 weeks
Conditions: in vivo, po, 2000 mg/kg, route gavage, dose level High; for APTT / Bas / Eos / Fbg / Hb / Ht / Lym / MCH / MCHC / MCV / Mono / Neu / PT / Plat / RBC / Ret / WBC: tissue Blood; for KIDNEY_L / KIDNEY_R / KIDNEY_TOTAL: tissue Kidney; for LIVER: tissue Liver; for A/G / ALP / ALT / AST / BUN / CRE / Ca / Cl / DBIL / GLC / IP / K / LDH / Na / PL / RALB / TBIL / TC / TG / TP / gamma-GTP: tissue Plasma

Question: What does the source list for `Clc1c(Cl)c(Cl)c(Cl)c(Cl)c1Cl` [PERCHLOROBENZENE]?
Answer: TERMINAL_BW (3 h): 219.3 g; APTT (3 h): 19.9 s; Bas (3 h): 0.4%; Eos (3 h): 1%; Fbg (3 h): 223.4 mg/dL; Hb (3 h): 13.8 g/dL; Ht (3 h): 38.5%; Lym (3 h): 76.4%; MCH (3 h): 22.1 pg; MCHC (3 h): 35.7%; MCV (3 h): 62 fL; Mono (3 h): 2.2%; Neu (3 h): 19.2%; PT (3 h): 12 s; Plat (3 h): 128.8 x10_4/uL; RBC (3 h): 621.4 x10_4/ul; Ret (3 h): 7.4%; WBC (3 h): 104.4 x10_2/uL; KIDNEY_L (3 h): 1 g; KIDNEY_R (3 h): 1 g; KIDNEY_TOTAL (3 h): 2 g; LIVER (3 h): 10.1 g; A/G (3 h): 1.6; ALP (3 h): 1055.8 IU/L; ALT (3 h): 37.2 IU/L; AST (3 h): 76.8 IU/L; BUN (3 h): 10.8 mg/dL; CRE (3 h): 0.4 mg/dL; Ca (3 h): 11 mg/dL; Cl (3 h): 103 meq/L; DBIL (3 h): 0.062 mg/dL; GLC (3 h): 192.6 mg/dL; IP (3 h): 9.3 mg/dL; K (3 h): 3.8 meq/L; LDH (3 h): 231.2 IU/L; Na (3 h): 141.4 meq/L; PL (3 h): 151 mg/dL; RALB (3 h): 3.4 g/dL; TBIL (3 h): 0.1 mg/dL; TC (3 h): 74.6 mg/dL; TG (3 h): 132 mg/dL; TP (3 h): 5.6 g/dL; gamma-GTP (3 h): 1.2 IU/L; TERMINAL_BW (6 h): 215.7 g; APTT (6 h): 19.3 s; Bas (6 h): 0.2%; Eos (6 h): 1%; Fbg (6 h): 239.6 mg/dL; Hb (6 h): 13.6 g/dL; Ht (6 h): 39.1%; Lym (6 h): 74%; MCH (6 h): 21.2 pg; MCHC (6 h): 34.6%; MCV (6 h): 61 fL; Mono (6 h): 2.6%; Neu (6 h): 20.8%; PT (6 h): 12 s; Plat (6 h): 134.1 x10_4/uL; RBC (6 h): 641.6 x10_4/ul; Ret (6 h): 7.1%; WBC (6 h): 105.2 x10_2/uL; KIDNEY_L (6 h): 0.9 g; KIDNEY_R (6 h): 0.9 g; KIDNEY_TOTAL (6 h): 1.8 g; LIVER (6 h): 9 g; A/G (6 h): 1.8; ALP (6 h): 1089.2 IU/L; ALT (6 h): 34 IU/L; AST (6 h): 77.2 IU/L; BUN (6 h): 9.4 mg/dL; CRE (6 h): 0.4 mg/dL; Ca (6 h): 10.6 mg/dL; Cl (6 h): 102.8 meq/L; DBIL (6 h): 0.072 mg/dL; GLC (6 h): 196.2 mg/dL; IP (6 h): 9.3 mg/dL; K (6 h): 3.9 meq/L; LDH (6 h): 219 IU/L; Na (6 h): 141.2 meq/L; PL (6 h): 132.6 mg/dL; RALB (6 h): 3.5 g/dL; TBIL (6 h): 0.1 mg/dL; TC (6 h): 73.8 mg/dL; TG (6 h): 55 mg/dL; TP (6 h): 5.5 g/dL; gamma-GTP (6 h): 1 IU/L; TERMINAL_BW (9 h): 214.9 g; APTT (9 h): 17.8 s; Bas (9 h): 0%; Eos (9 h): 1%; Fbg (9 h): 224.6 mg/dL; Hb (9 h): 13.5 g/dL; Ht (9 h): 38.5%; Lym (9 h): 74.2%; MCH (9 h): 21.5 pg; MCHC (9 h): 35.1%; MCV (9 h): 61.4 fL; Mono (9 h): 2.2%; Neu (9 h): 21%; PT (9 h): 12 s; Plat (9 h): 126.2 x10_4/uL; RBC (9 h): 626.2 x10_4/ul; Ret (9 h): 7.3%; WBC (9 h): 92.9 x10_2/uL; KIDNEY_L (9 h): 1 g; KIDNEY_R (9 h): 1 g; KIDNEY_TOTAL (9 h): 1.9 g; LIVER (9 h): 9 g; A/G (9 h): 1.7; ALP (9 h): 944.6 IU/L; ALT (9 h): 26.4 IU/L; AST (9 h): 68.4 IU/L; BUN (9 h): 10.6 mg/dL; CRE (9 h): 0.4 mg/dL; Ca (9 h): 10.6 mg/dL; Cl (9 h): 103.4 meq/L; DBIL (9 h): 0.064 mg/dL; GLC (9 h): 207.2 mg/dL; IP (9 h): 10.7 mg/dL; K (9 h): 4.1 meq/L; LDH (9 h): 216.6 IU/L; Na (9 h): 141.2 meq/L; PL (9 h): 130.2 mg/dL; RALB (9 h): 3.4 g/dL; TBIL (9 h): 0.1 mg/dL; TC (9 h): 68 mg/dL; TG (9 h): 44 mg/dL; TP (9 h): 5.4 g/dL; gamma-GTP (9 h): 0.8 IU/L; TERMINAL_BW (24 h): 231.5 g; APTT (24 h): 18.5 s; Bas (24 h): 0.2%; Eos (24 h): 1%; Fbg (24 h): 233.4 mg/dL; Hb (24 h): 13.7 g/dL; Ht (24 h): 39.3%; Lym (24 h): 76.4%; MCH (24 h): 21 pg; MCHC (24 h): 34.8%; MCV (24 h): 60.4 fL; Mono (24 h): 2.6%; Neu (24 h): 19%; PT (24 h): 11.6 s; Plat (24 h): 126.2 x10_4/uL; RBC (24 h): 651.6 x10_4/ul; Ret (24 h): 6%; WBC (24 h): 100 x10_2/uL; KIDNEY_L (24 h): 1 g; KIDNEY_R (24 h): 0.9 g; KIDNEY_TOTAL (24 h): 1.9 g; LIVER (24 h): 11.1 g; A/G (24 h): 1.5; ALP (24 h): 1190.4 IU/L; ALT (24 h): 36.2 IU/L; AST (24 h): 71.4 IU/L; BUN (24 h): 14.8 mg/dL; CRE (24 h): 0.4 mg/dL; Ca (24 h): 10.7 mg/dL; Cl (24 h): 103.4 meq/L; DBIL (24 h): 0.052 mg/dL; GLC (24 h): 195.6 mg/dL; IP (24 h): 7.4 mg/dL; K (24 h): 3.9 meq/L; LDH (24 h): 229.6 IU/L; Na (24 h): 141.2 meq/L; PL (24 h): 139.6 mg/dL; RALB (24 h): 3.3 g/dL; TBIL (24 h): 0.1 mg/dL; TC (24 h): 74 mg/dL; TG (24 h): 108.8 mg/dL; TP (24 h): 5.5 g/dL; gamma-GTP (24 h): 1.2 IU/L
